Counter-ions that a name gives are not always drawn. Square brackets hold non-standard residues; d marks the D form. Peptide text beside a SMILES is read from it. Hpg = N[C@H](C(=O)O)c1ccc(O)cc1

Experiment [1] has as its system pyruvate oxidation by diaphragm tissue from fat-fed rats. The experiment is described as follows: Stimulation of pyruvate oxidation by diaphragm tissue from fat-fed rats in vitro. The experiment is classed as cell-based. The following applies: Rattus norvegicus, concentration of 0.5 mmoles, L-compounds. On the procedure:
Representative compounds of the formula (II) have been tested for their ability to increase the oxidation of glucose and/or pyruvate as follows: Diaphragm tissue is obtained from rats fed on a high fat diet similar to `Diet B` described by Zaragoza and Felber [Horm. Metab. Res., 2, 323 (1970)]. Pyruvate oxidation by such tissue is assessed by measurement of the rate of incorporation of carbon-14 from carbon-14-labelled pyruvate into carbon dioxide in vitro, as described by Bringolf [Eur. J. Biochem., 26, 360 (1972)]. The rate of pyruvate oxidation is depressed by 50%-75% compared with that by diaphragm tissue from rats fed on a normal diet. When the L- and DL-compounds of the formula (II) are added to the medium, they are found to stimulate pyruvate oxidation by diaphragm tissue from fat-fed rats in a dose dependent manner.

Experiment [2] concerns pyruvate dehydrogenase enzyme. The experiment is described as follows: Increase in proportion of active form of pyruvate dehydrogenase (PDHa/PDHt) in hearts of fat-fed rats in vivo. The following applies: 0.6 mg./kg. oral or sub-cutaneous; rat hearts removed after 11/2 hours; L-compounds; placebo ratio 0.12-0.21. On the procedure:
The ability of compounds of formula (II) to increase the proportion of the active form of the pyruvate dehydrogenase enzyme has been measured in the following test: Rats fed on a high fat diet as in the previous test, are treated either with placebo or with the compound of formula (II) by subcutaneous or intravenous injection or by oral administration. After 11/2 hours the rat hearts are removed and homogenized under conditions which minimize changes in the proportion of the pyruvate dehydrogenase enzyme […] which is present in the active form, as described by Whitehouse and Randle [Biochem. J., 134, 651 (1973)]. The total amount of the enzyme present (PDHt) and the amount which is present in the active form (PDHa) are assessed by a method similar to that described by Taylor et al. [J. Biol. Chem., 248, 73 (1973)]. The fat-feeding process is found to depress the ratio […] from a normal value of about 0.7 to a value in the range from 0.05 to 0.2. Treatment of fat-fed rats with L- and DL-compounds of formula (II) either parenterally or orally, increases this ratio in a dose-dependent manner. The increase in the […] ratio affected by the L-compounds of formula (II) at a dosage level of 0.6 mg./kg. via the oral or sub-cutaneous route is shown in the following Table: […]

The molecule `CC(C)(C)NC(=O)[C@@H](N)c1ccc(O)cc1` [Example 3] showed an activation at 500 µM in experiment [1] of 15%. The “PDHa/PDHt ratio, compound” value in experiment [2] was 0.56.

Molecule `COc1ccccc1OCC(O)CNC(=O)[C@@H](N)c1ccc(O)cc1` (stereo partly shown) [Example 15] had an activation at 500 µM in experiment [1] of 55%. In experiment [2], the “PDHa/PDHt ratio, compound” value is given as 0.25.

Turning to `CCN(CC)CCNC(=O)[C@@H](N)c1ccc(O)cc1` [Example 6, L-N-(2-diethylamino)ethyl-2-amino-2-(4-hydroxyphenyl)acetamide], the activation at 500 µM in experiment [1] turned out to be 38%. Further, the “PDHa/PDHt ratio, compound” value in experiment [2] was 0.78.

The molecule `CNC(=O)[C@@H](N)c1ccc(O)cc1.Cl` [Example 13, (L)-N-methyl-2-Amino-2-(4-hydroxyphenyl)acetamide hydrochloride] registered an activation at 500 µM in experiment [1] of 45%. Further, the “PDHa/PDHt ratio, compound” value in experiment [2] is 0.55.

In turn, `C#CCNC(=O)[C@@H](N)c1ccc(O)cc1` [Example 4, L-N-propargyl-2-amino-2-(4-hydroxyphenyl)acetamide] yielded an activation at 500 µM in experiment [1] of 82%. In experiment [2], the “PDHa/PDHt ratio, compound” value is 0.73.

As to `N[C@H](C(=O)NC1CCCC1)c1ccc(O)cc1` [Example 5, L-N-cyclopentyl-2-amino-2-(4-hydroxyphenyl)acetamide], in experiment [1], the activation at 500 µM worked out at 23%. The “PDHa/PDHt ratio, compound” value in experiment [2] came to 0.88.

In turn, `CC(C)NC(=O)[C@@H](N)c1ccc(O)cc1` [Example 2, L-N-isopropyl-2-amino-2-(4-hydroxyphenyl)acetamide] displayed an activation at 500 µM in experiment [1] of 108%. Further, in experiment [2], the “PDHa/PDHt ratio, compound” value is on record as 0.65.

Consider `COCCNC(=O)[C@@H](N)c1ccc(O)cc1` [Example 14, L-N-(2-methoxyethyl)-2-amino-2-(4-hydroxyphenyl)acetamide], for which the activation at 500 µM in experiment [1] stood at 76%. In experiment [2], the “PDHa/PDHt ratio, compound” value was 0.88.

`N[C@H](C(=O)NCC(=O)O)c1ccc(O)cc1` [Example 17, N-[(L)-2-(4-hydroxyphenyl)glycyl]-glycine hydrochloride dioxanate] (H-[Hpg]-Gly-OH): the activation at 500 µM in experiment [1] is 41%. Moreover, in experiment [2], the “PDHa/PDHt ratio, compound” value came to 0.31.

In experiment [1], `Cl.N[C@H](C(=O)N[C@@H](Cc1ccc(O)cc1)C(=O)O)c1ccc(O)cc1` [Example 16, N-[(L)-2-(4-Hydroxyphenyl)glycyl]-(L)-tyrosine hydrochloride] (H-[Hpg]-Tyr-OH) showed an activation at 500 µM of 67%. Also, the “PDHa/PDHt ratio, compound” value in experiment [2] came to 0.31.

In the case of `Cl.N[C@H](C(=O)NCc1ccc(O)cc1)c1ccc(O)cc1` [Example 1, (L)-N-(4-Hydroxybenzyl)-2-amino-2-(4-Hydroxyphenyl)acetamide hydrochloride], the activation at 500 µM in experiment [1] is 72%. The “PDHa/PDHt ratio, compound” value in experiment [2] came to 1.00.

Source of the values: patent US4218474A, “Derivatives of L- and DL-4-hydroxyphenylglycine” (Pfizer Inc., priority 1977, dated 1980).
